Patent publication US4582822A, “Antibiotic A80190, pharmaceutical compositions containing same and method of use” (Eli Lilly and Company, priority 1984, dated 1986)
In brackets after ≈: the same amount, converted by molar mass. Several values for one entry are separate records, joined by “and”; a condition that tells them apart may be missing. Equal entries are not always repeated.

What was measured:
[1] = test system: adult housefly; experiment: Insecticidal activity; details: in vivo
[2] = test system: Propionibacterium acnes 79; experiment: Agar-dilution MIC, anaerobic bacteria; assay type: cell-based; details: 24-hour incubation
[3] = test system: Fusobacterium necrophorum 6054A; experiment: Agar-dilution MIC, anaerobic bacteria; assay type: cell-based; details: 24-hour incubation
[4] = test system: Clostridium perfringens 81; assay type: cell-based; details: 24-hour incubation
[5] = test system: pigweed; experiment: Herbicidal activity; assay type: in vivo; details: 200 gpa; either pre-emergence or post-emergence
[6] = target: mitochondrial ATPase; experiment: Inhibition of mitochondrial ATPase in vitro; assay type: biochemical
Source text: In yet another aspect, the A80190 compounds are active as inhibitors of the enzyme ATPase. ATPase, an alkali-metal-sensitive enzyme found in cell membranes, is involved in the energy necessary for active transport. "Active transport" refers to the energy requiring series of operations whereby intracellular and extracellular fluids maintain their compositions. Inhibitors of ATPase reduce the energy required for active transport. In vitro tests have shown that A80190 inhibits mitochondrial ATPase with a half-effective concentration (IC50) of 0.5 μg/ml.

[7] = test system: Peptostreptococcus anaerobius 1428; experiment: Agar-dilution MIC, anaerobic bacteria; assay type: cell-based; details: 24-hour incubation
[8] = test system: natural and artificial membranes; experiment: Cation permeability of membranes
[9] = test system: volatile-fatty-acid (VFA) production, rumen; experiment: Ruminant feed-utilization efficiency, VFA ratio treated/control flasks
Source text: The efficiency of feed use can be monitored by observing the production and concentration of propionate compounds in the rumen using the method described by Arthur P. Raun in U.S. Pat. No. 3,794,732 (see especially Example 5).

[10] = test system: southern armyworm; experiment: Insecticidal activity; details: in vivo
[11] = test system: blowfly larvae; experiment: Insecticidal activity; details: in vivo
[12] = test system: mustard; experiment: Herbicidal activity; assay type: in vivo; details: 200 gpa; either pre-emergence or post-emergence
[13] = test system: Staphylococcus aureus; experiment: Disc-diffusion, zone of inhibition; assay type: cell-based; details: 6-mm pads dipped in 1 mg/ml
Method: (§1) The inhibitory activity of A80190 is illustrated in Table VI. Activity was measured by the conventional disc-diffusion method (6-mm pads were dipped in solutions containing 1 mg of compound per ml of solution; pads were placed on agar plates seeded with test organism).

[14] = test system: Neurospora crassa; experiment: Disc-diffusion, zone of inhibition; assay type: cell-based; details: 6-mm pads dipped in 1 mg/ml
Method: as §1

[15] = test system: Candida albicans; experiment: Disc-diffusion, zone of inhibition; assay type: cell-based; details: 6-mm pads dipped in 1 mg/ml
Method: as §1

[16] = test system: Saccharomyces pastorianus; experiment: Disc-diffusion, zone of inhibition; assay type: cell-based; details: 6-mm pads dipped in 1 mg/ml
Method: as §1

[17] = test system: Mycobacterium avium; experiment: Disc-diffusion, zone of inhibition; assay type: cell-based; details: 6-mm pads dipped in 1 mg/ml
Method: as §1

[18] = test system: Bacillus subtilis; experiment: Disc-diffusion, zone of inhibition; assay type: cell-based; details: 6-mm pads dipped in 1 mg/ml
Method: as §1

[19] = test system: Micrococcus luteus; experiment: Disc-diffusion, zone of inhibition; assay type: cell-based; details: 6-mm pads dipped in 1 mg/ml
Method: as §1

[20] = test system: Mexican bean beetle; experiment: Insecticidal activity; details: in vivo
[21] = test system: Polio III virus; assay type: cell-based; details: tissue culture
[22] = test system: Fusobacterium symbiosum 1470; experiment: Agar-dilution MIC, anaerobic bacteria; assay type: cell-based; details: 24-hour incubation
[23] = test system: Clostridium difficile 2994; experiment: Agar-dilution MIC, anaerobic bacteria; assay type: cell-based; details: 24-hour incubation
Method: (§2) One important aspect of the antimicrobial activity of A80190 compounds relates to their activity against anaerobic bacteria. The minimal inhibitory concentrations (MIC's) at which A80190 inhibits various anaerobic bacteria, as determined by standard agar-dilution assay, are summarized in Table VII. End points were read after 24-hour incubation.

[24] = test system: Bacteroides fragilis 1936B; experiment: Agar-dilution MIC, anaerobic bacteria; assay type: cell-based; details: 24-hour incubation
Method: as §2

[25] = test system: Bacteroides fragilis 1877; experiment: Agar-dilution MIC, anaerobic bacteria; assay type: cell-based; details: 24-hour incubation
Method: as §2

[26] = test system: Bacteroides melaninogenicus 1856/28; experiment: Agar-dilution MIC, anaerobic bacteria; assay type: cell-based; details: 24-hour incubation
Method: as §2

[27] = test system: Bacteroides melaninogenicus 2736; experiment: Agar-dilution MIC, anaerobic bacteria; assay type: cell-based; details: 24-hour incubation
Method: as §2

[28] = test system: Bacteroides corrodens 1874; experiment: Agar-dilution MIC, anaerobic bacteria; assay type: cell-based; details: 24-hour incubation
Method: as §2

[29] = test system: Bacteroides thetaiotaomicron 1438; experiment: Agar-dilution MIC, anaerobic bacteria; assay type: cell-based; details: 24-hour incubation
Method: as §2

[30] = test system: Clostridium septicum 1128; experiment: Agar-dilution MIC, anaerobic bacteria; assay type: cell-based; details: 24-hour incubation
Method: as §2

[31] = test system: Bacteroides fragilis 111; experiment: Agar-dilution MIC, anaerobic bacteria; assay type: cell-based; details: 24-hour incubation
Method: as §2

[32] = test system: two-spotted spider mite; experiment: Acaricidal activity; details: in vivo
[33] = test system: Eimeria tenella; experiment: In vitro tissue culture screen, anticoccidial; assay type: cell-based; parameters: key: C: cytotoxic; A: active; S: slightly active; N: not active
Source text: Anticoccidial activity is an important property of the A80190 compounds. Table VIII summarizes the results of an in vitro tissue culture screen of A-80190 compounds vs. Eimeria tenella.

[34] = test system: crabgrass; experiment: Herbicidal activity; assay type: in vivo; details: 200 gpa; either pre-emergence or post-emergence
[35] = test system: Caenorhabditis elegans; experiment: Anthelmintic activity; details: in vivo
[36] = pKa in 66% aqueous dimethylformamide; assay type: physicochemical
Source text: (§3) Antibiotic A80190 has been assigned structure 1 based on X-ray crystallographic studies. A80190 (in its free acid form) has the following characteristics: […]

[37] = test system: Peptococcus asaccharolyticus 1302; experiment: Agar-dilution MIC, anaerobic bacteria; assay type: cell-based; details: 24-hour incubation
[38] = test system: Petococcus prevoti 1281; experiment: Agar-dilution MIC, anaerobic bacteria; assay type: cell-based; details: 24-hour incubation
[39] = Solubility; assay type: physicochemical
Source text: as §3

[40] = test system: Eubacterium aerofaciens 1235; experiment: Agar-dilution MIC, anaerobic bacteria; assay type: cell-based; details: 24-hour incubation
[41] = test system: Treponema hyodysenteriae; experiment: Growth inhibition, swine dysentery agent; assay type: cell-based
[42] = test system: mosquito larvae; experiment: Insecticidal activity; details: in vivo
[43] = Ionophorous (ion-transport) activity with cations
[44] = test system: Peptostreptococcus intermedius 1624; experiment: Agar-dilution MIC, anaerobic bacteria; assay type: cell-based; details: 24-hour incubation
[45] = test system: Bacteroides vulgatis 1211; experiment: Agar-dilution MIC, anaerobic bacteria; assay type: cell-based; details: 24-hour incubation
[46] = test system: NRRL 15878; experiment: Resistance to antibiotics, sensitivity discs on seeded agar; assay type: cell-based, Actinomadura oligospora; details: 30 μg
Method: (§4) Resistance to antibiotics was measured by padding antibiotic sensitivity discs onto the surface of seeded ISP No. 2 agar plates.
(§5) Table III lists the resistance of the strain to various antibiotics at the concentrations indicated and compares it to that of A. macra.

[47] = test system: A. macra; experiment: as above; assay type: cell-based, Actinomadura macra
Method: as §4, §5

CC[C@@H](O)[C@]1(C)C[C@H](C)[C@@](O)([C@H]2C[C@H](C)[C@H]([C@]3(C)C[C@@H](O[C@H]4CC[C@H](OC)[C@@H](C)O4)[C@H]([C@@H]4CC[C@@]5(O[C@H]([C@@H](C)[C@@H](OC)[C@H](C)C(=O)O)[C@H](C)[C@@H](OC)[C@H]5C)O4)O3)O2)O1 [A80190]
active at levels as low as [1]: 35 ppm | MIC [2]: 1 µg/mL (≈ 1.21 µM) | MIC [3]: 16 µg/mL (≈ 19.3 µM) | MIC [4]: < 0.5 µg/mL | active at (application rate) [5]: 2 lb/acre | half-effective concentration (IC50) [6]: 0.5 µg/mL | MIC [7]: 1 µg/mL (≈ 1.21 µM) | cation permeability [8]: alters the cation permeability of both natural and artificial membranes | Molar % Acetate (ratio treated/control) ([9]; 0.3 mcg/ml): 0.970 | Molar % Butyrate (ratio treated/control) ([9]; 0.3 mcg/ml): 0.819 | Molar % Propionate (ratio treated/control) ([9]; 0.3 mcg/ml): 1.220 | Total VFA/Control VFA ([9]; 0.3 mcg/ml): 0.967 mM/L | Molar % Acetate (ratio treated/control) ([9]; 1 mcg/ml): 0.986 and 0.892 and 1.016 and 0.926 | Molar % Butyrate (ratio treated/control) ([9]; 1 mcg/ml): 0.851 and 0.813 and 0.706 and 0.529 | Molar % Propionate (ratio treated/control) ([9]; 1 mcg/ml): 1.185 and 1.403 and 1.247 and 1.566 | Total VFA/Control VFA ([9]; 1 mcg/ml): 0.916 mM/L and 0.887 mM/L and 0.857 mM/L and 0.913 mM/L | Molar % Acetate (ratio treated/control) ([9]; 3 mcg/ml): 0.998 | Molar % Butyrate (ratio treated/control) ([9]; 3 mcg/ml): 0.611 | Molar % Propionate (ratio treated/control) ([9]; 3 mcg/ml): 1.368 | Total VFA/Control VFA ([9]; 3 mcg/ml): 0.963 mM/L | active at levels as low as [10]: < 100 ppm | active at levels as low as [11]: 35 ppm | active at (application rate) [12]: 2 lb/acre | Zone of Inhibition [13]: 17 mm diameter | Zone of Inhibition [14]: 14 mm diameter | Zone of Inhibition [15]: 14 mm diameter | Zone of Inhibition [16]: 10 mm diameter | Zone of Inhibition [17]: 21 mm diameter | Zone of Inhibition [18]: 23 mm diameter | Zone of Inhibition [19]: 20 mm diameter | active at levels as low as [20]: < 100 ppm | active at a level of [21]: 2000 µg/mL | MIC [22]: 8 µg/mL (≈ 9.65 µM) | MIC [23]: < 0.5 µg/mL | MIC [24]: > 128 µg/mL | MIC [25]: > 128 µg/mL | MIC [26]: > 128 µg/mL | MIC [27]: > 128 µg/mL | MIC [28]: > 128 µg/mL | MIC [29]: > 128 µg/mL | MIC [30]: < 0.5 µg/mL | MIC [31]: > 128 µg/mL | active when applied at a rate as low as [32]: 25 ppm | Activity vs. Eimeria tenella In Vitro ([33]; 0.008 μg/ml): A | Activity vs. Eimeria tenella In Vitro ([33]; 0.04 μg/ml): A | Activity vs. Eimeria tenella In Vitro ([33]; 0.2 μg/ml): A | Activity vs. Eimeria tenella In Vitro ([33]; 1 μg/ml): C | Activity vs. Eimeria tenella In Vitro ([33]; 5 μg/ml): C | active at (application rate) [34]: 2 lb/acre | active at levels as low as [35]: 20 ppm | pKa [36]: 6.2 | MIC [37]: 1 µg/mL (≈ 1.21 µM) | MIC [38]: < 0.5 µg/mL | Solubility ([39]; organic solvents): soluble in lower alcohols such as methanol, ketones such as acetone, esters such as ethyl acetate, halogenated hydrocarbons such as chloroform and hydrocarbons such as diethyl ether, benezene, toluene and warm hexane | Solubility ([39]; water): Insoluble in water | MIC [40]: < 0.5 µg/mL | inhibits the growth at levels as low as [41]: 0.39 µg/mL | active at levels as low as [42]: < 50 ppm | ionophorous effect, cation preference ([43]; 0.2 μg/ml, Cs+ vs Na+): even greater ionophorous effect with Cs^+ than with Na^+ as cation | ionophorous activity ([43]; 0.5 μg/ml): showed ionophorous activity | ionophorous activity, cation preference ([43]; 0.5 μg/ml, Na+, K+ and Rb+ vs Cs+ or Li+): activity with Na^+, K^+ and Rb^+ was better than that with Cs^+ or Li^+ | MIC [44]: 1 µg/mL (≈ 1.21 µM) | MIC [45]: 16 µg/mL (≈ 19.3 µM)

NC[C@@H]1O[C@H](O[C@H]2[C@@H](O)[C@H](O[C@@H]3[C@@H](O)[C@H](N)C[C@H](N)[C@H]3O[C@H]3O[C@H](CN)[C@@H](O)[C@H](O)[C@H]3N)O[C@@H]2CO)[C@H](N)[C@@H](O)[C@@H]1O [Neomycin]
Resistance to Antibiotics [46]: - | Resistance to Antibiotics ([47]; 30 μg): -

NC[C@H]1O[C@H](O[C@H]2[C@H](O)[C@@H](O[C@H]3O[C@H](CO)[C@@H](O)[C@H](N)[C@H]3O)[C@H](N)C[C@@H]2N)[C@H](N)C[C@@H]1O [Tobramycin]
Resistance to Antibiotics ([47]; 10 μg): -
